From US9233912B2, “Devices and methods for crystallization” (Massachusetts Institute of Technology, priority 2013, dated 2016)
Read-outs that look alike come from different tables or passages of the source. Each block holds one compound with its values, some of them ahead of it.

Assays:
[1] = Seeded Crystallization
Procedure: (§1) To perform the analysis, a drop of solution or 1 mg of crystals dispersed in a few drops of mineral oil was first imaged using a 5× objective.
A continuous crystallization process with seeding was evaluated for comparison with an integrated nucleator-crystallizer device. A schematic diagram of the seeded crystallization experiment is depicted in FIG. 13. Seed crystals (nuclei) were obtained from antisolvent crystallization of glycine (to generate small crystals). Crystals obtained from antisolvent crystallization were sieved through a series of sieves with openings of 90, 63, and 45 μm. Seeds were collected from the 45 μm sieve.
For the seeded crystallization experiment, the crystallizer was first filled with the feed solution. Once filled, the process was seeded by pumping (50 mL/min) a suspension of 0.05 g seed in 25 mL feed solution into the crystallizer. After seeding, the crystallization process proceeded with continuous input of clear feed solution at 50 mL/min. Glycine crystals were collected by vacuum filtration at the crystallizer outlet. Except for the seeding procedure, the other experimental conditions for the seeded crystallization experiment were kept identical to the integrated nucleator-crystallizer experiment of Example 4.
Feed solution concentration: 24% (20% above saturation)
Residence time in crystallizer (100 mL): 2 min
Crystallizer holding temperature: 28° C.
The data were analyzed with crystals collected between 4-5 residence times (RT) when the device was at steady state.
To investigate the feasibility of the seeded experiment, a second experiment was conducted at lower crystallizer temperature (higher supersaturation that could potentially improve crystal growth rate).

[2] = w/w = g chemical/g solution; cited from earlier work
[3] = Integrated nucleator-crystallizer (Coflore crystallizer) experiment, crystal size; settings: for d0.1 / d0.5 / d0.9: Integrated nucleator crystallization
[4] = Procedure: as §1
[5] = Nucleator only experiments, in-line FBRM chord length distribution; format: physicochemical; settings: FBRM at nucleator outlet, residence time 7.4 s and 10.3 s
Description: In some embodiments, Focused Beam Reflectance Measurement (FBRM) or similar technique may be used to obtain characteristic size information. FBRM, in some embodiments, provides an ability to measure objects (e.g., crystals) in suspensions, e.g., at full process concentration, without the need for sample extraction and sample preparation. In some embodiments, FBRM method of measurement may be used which is based on a measurement of Chord Length Distribution that simultaneously tracks the rate and degree of change in particle count and mean chord length. As used herein, the term “chord length” refers to the length of a line segment passing across a portion of a projection of an object on a two-dimensional plane, and whose end points lie on the edge of the projection. The term “mean chord length” refers to the mean length of multiple chords, e.g., multiple randomly orientated chords. Methods for measuring mean particle count and mean chord length are well known in the art. See, […]. Particle Size Measurements: Fundamentals, Practice, Quality. […] Copyright 2009 Springer Science+Business Media B.V., and references cited therein.

[6] = Integrated nucleator-tubular crystallizer experiment, crystal size by microscopic analysis; format: physicochemical
Procedure: as §1
These experiments involved connecting the generator to a tubular crystallizer for crystal growth. This integrated nucleator-crystallizer experiment was conducted with a 49 mL tubular coiled crystallizer (Masterflex® L/S®, Chem-Durance® Bio tubing, ID=3.2 mm, Length=20 ft) using 1.54% acetaminophen solution. During the experiment, relatively small crystals generated in the nucleator were pumped into the tubular crystallizer at the same flow rate as the nuclei generator. The small crystals then grew in the crystallizer for a fixed residence time before the crystals were collected by vacuum filtration, as shown in FIG. 2. Two experiments at flow rates of 14.2 and 11.3 mL/min were conducted. The particle size distributions of the crystals were determined by microscopic analysis (Nikon Eclipse ME600).
The nuclei generator can be integrated into crystallization processes in which the production of crystals of specific size distribution is desired (See, e.g., FIGS. 1B, 1C, 2, 12). In some embodiments, with the continuous generation of nuclei, the nucleation and growth events were decoupled. In this case, nucleation was triggered in the nucleator, while growth continued in the crystallizer. Multiple integrated nucleator—tubular crystallizer experiments were conducted that illustrate this process.

d0.1 ([1]; Run 1 (Tcryst = 28° C.)): 6.3 μm | d0.5 ([1]; Run 1 (Tcryst = 28° C.)): 14.6 μm | d0.9 ([1]; Run 1 (Tcryst = 28° C.)): 44.6 μm | d0.1 ([1]; Run 2 (Tcryst = 25° C.)): 7.4 μm | d0.5 ([1]; Run 2 (Tcryst = 25° C.)): 28.8 μm | d0.9 ([1]; Run 2 (Tcryst = 25° C.)): 90.3 μm | d0.1 ([1]; Seed): 2.4 μm | d0.5 ([1]; Seed): 10.3 μm | d0.9 ([1]; Seed): 50.8 μm | average size of nuclei upon leaving the nucleator ([3]; 24% solution, 50 mL/min, approx. 10 s in nucleator): 14 μm | average size of crystals from Coflore crystallizer ([3]; 24% solution, 50 mL/min, approx. 2 minutes in crystallizer, 28° C.): 48 μm | d0.1 ([3]; Coflore): 13.9 μm | d0.5 ([3]; Coflore): 34.1 μm | d0.9 ([3]; Coflore): 91.9 μm | d0.1 ([3]; Nucleator): 2.4 μm | d0.5 ([3]; Nucleator): 8.8 μm | d0.9 ([3]; Nucleator): 27.2 μm | size below which 90% of the nuclei lie ([4]; 21% glycine solution, 30 s residence time, nucleator only): less than 12.28 μm | coefficient of variation (CV) of nuclei size ([4]; 21% glycine solution, three residence times): ~1 | size of nuclei obtained (mostly) ([4]; 21% glycine solution, three residence times (30 s, 2 min, 3.5 min)): less than 20 μm | mean size of small crystals generated with the nucleator ([4]; glycine experiments, nucleator device): up to 14 μm
SMILES: NCC(=O)O [Glycine, glycine]
Saturation concentration at 25° C. (Cs) [2]: 20^15 % w/w

span (D (0.9)-D (0.1)) of chord length distribution [5]: ≈ 20 μm | average growth rate inside the nucleator ([6]; flow rate 11.31 mL/min): 1.47×10^−7 m/s | mean size of crystals leaving the nucleator ([6]; flow rate 11.31 mL/min): 6.7 μm | mean size of crystals after tubular crystallizer ([6]; flow rate 11.31 mL/min, after 4.3 min in the tubular crystallizer): 13.5 μm | average growth rate inside the crystallizer ([6]; flow rate 11.31 mL/min, tubular crystallizer): 2.62×10^−7 m/s | mean size of small crystals produced ([6]; integrated nucleator and tubular crystallizer, FIG. 9): 12 μm
SMILES: CC(=O)Nc1ccc(O)cc1 [Acetaminophen, acetaminophen]
Saturation concentration at 25° C. (Cs) [2]: 1.48^16 % w/w
